Numbering of substitutions follows the chain as printed. Numbers in names are those of the source.
What was measured:
hDHFR Q35S/N64F = molecular target: T1, hDHFR Q35S/N64F (Homo sapiens, UniProt P00374, N65F/Q36S); assay: Standard DHFR assay, kinetic constants; type: biochemical; conditions: read-out: Km NADPH
T1 sequence (P00374 1-187 Q36S/N65F): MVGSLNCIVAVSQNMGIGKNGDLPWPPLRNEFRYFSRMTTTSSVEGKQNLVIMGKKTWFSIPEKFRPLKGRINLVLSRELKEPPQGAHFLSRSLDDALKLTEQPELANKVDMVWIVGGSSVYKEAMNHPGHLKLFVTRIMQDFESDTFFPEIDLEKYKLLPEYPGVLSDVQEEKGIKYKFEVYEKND

hDHFR N64F = molecular target: T2, hDHFR N64F (Homo sapiens, UniProt P00374, N65F); assay: Standard DHFR assay, kinetic constants; type: biochemical; conditions: read-out: Km NADPH
T2 sequence (P00374 1-187 N65F): T1 sequence (P00374 1-187 Q36S/N65F) with S36Q

pcDHFR = pcDHFR (Pneumocystis carinii, UniProt P16184); type: biochemical; conditions: read-out: Km NADPH
hDHFR Q35S = molecular target: T3, hDHFR Q35S (Homo sapiens, UniProt P00374, Q36S); assay: Standard DHFR assay, kinetic constants; type: biochemical; conditions: read-out: Km NADPH
T3 sequence (P00374 1-187 Q36S): T1 sequence (P00374 1-187 Q36S/N65F) with F65N

hDHFR Q35S/N64S = molecular target: T4, hDHFR Q35S/N64S (Homo sapiens, UniProt P00374, N65S/Q36S); assay: Standard DHFR assay, kinetic constants; type: biochemical; conditions: read-out: Km NADPH
T4 sequence (P00374 1-187 Q36S/N65S): T1 sequence (P00374 1-187 Q36S/N65F) with F65S

hDHFR N64S = molecular target: T5, hDHFR N64S (Homo sapiens, UniProt P00374, N65S); assay: Standard DHFR assay, kinetic constants; type: biochemical; conditions: read-out: Km NADPH
T5 sequence (P00374 1-187 N65S): T1 sequence (P00374 1-187 Q36S/N65F) with S36Q, F65S

hDHFR Q35K/N64S = molecular target: T6, hDHFR Q35K/N64S (Homo sapiens, UniProt P00374, N65S/Q36K); assay: Standard DHFR assay, kinetic constants; type: biochemical; conditions: read-out: Km NADPH
T6 sequence (P00374 1-187 Q36K/N65S): T1 sequence (P00374 1-187 Q36S/N65F) with S36K, F65S

hDHFR Q35K/N64F = molecular target: T7, hDHFR Q35K/N64F (Homo sapiens, UniProt P00374, N65F/Q36K); assay: Standard DHFR assay, kinetic constants; type: biochemical; conditions: read-out: Km NADPH
T7 sequence (P00374 1-187 Q36K/N65F): T1 sequence (P00374 1-187 Q36S/N65F) with S36K

pjDHFR = molecular target: T8, pjDHFR (Pneumocystis jirovecii, UniProt Q9UUP5); assay: Standard DHFR assay; conditions: read-out: Km NADPH, substrate at saturating concentration
T8 sequence (Q9UUP5 1-206): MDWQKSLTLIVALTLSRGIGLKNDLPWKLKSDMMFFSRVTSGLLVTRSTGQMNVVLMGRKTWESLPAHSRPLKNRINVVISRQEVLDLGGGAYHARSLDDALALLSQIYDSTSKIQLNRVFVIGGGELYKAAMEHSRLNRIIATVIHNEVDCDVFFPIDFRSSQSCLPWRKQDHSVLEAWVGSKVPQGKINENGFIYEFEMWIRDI

hDHFR Q35K = molecular target: T9, hDHFR Q35K (Homo sapiens, UniProt P00374, Q36K); assay: Standard DHFR assay, kinetic constants; type: biochemical; conditions: read-out: Km NADPH
T9 sequence (P00374 1-187 Q36K): T1 sequence (P00374 1-187 Q36S/N65F) with S36K, F65N

hDHFR = molecular target: T10, hDHFR (Homo sapiens, UniProt P00374); assay: Standard DHFR assay, kinetic constants; type: biochemical; conditions: read-out: Km NADPH; wild type hDHFR
T10 sequence (P00374 1-187): T1 sequence (P00374 1-187 Q36S/N65F) with S36Q, F65N

[1] = substrate: Nc1nc2c(c(=O)[nH]1)N=C(CNc1ccc(C(=O)N[C@@H](CCC(=O)O)C(=O)O)cc1)CN2; assay: purified protein, by the assay type; conditions: pH 7.4

pcDHFR, sequence (P16184 whole entry): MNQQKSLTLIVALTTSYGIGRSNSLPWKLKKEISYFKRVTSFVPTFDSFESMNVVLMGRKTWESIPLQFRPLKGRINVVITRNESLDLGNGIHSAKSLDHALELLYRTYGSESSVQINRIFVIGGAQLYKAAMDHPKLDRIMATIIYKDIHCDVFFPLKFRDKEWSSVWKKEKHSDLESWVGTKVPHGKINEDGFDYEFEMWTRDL

`NC(=O)C1=CN([C@@H]2O[C@H](COP(=O)(O)OP(=O)(O)OC[C@H]3O[C@@H](n4cnc5c(N)ncnc54)[C@H](OP(=O)(O)O)[C@@H]3O)[C@@H](O)[C@H]2O)C=CC1` [NADPH] showed a Km (hDHFR Q35S/N64F) of 5.6 ± 0.5 µM, a Km (hDHFR N64F) of 7.5 ± 3.1 µM and a Km (pcDHFR) of 16 ± 2 µM. It also gave a Km (hDHFR Q35S) of 3.8 ± 1.4 µM, a Km (hDHFR Q35S/N64S) of 5.3 ± 1.5 µM and a Km (hDHFR N64S) of 6.3 µM. For the same molecule, the Km (hDHFR Q35K/N64S) was 6.6 ± 1.8 µM, the Km (hDHFR Q35K/N64F) was 5.7 ± 1.1 µM and the Km (pjDHFR) was 19 ± 1 µM. It also gave a Km (hDHFR Q35K) of 12.5 µM and a Km (hDHFR) of 4.5 ± 1.2 µM.

B1: hDHFR Q35K/N64S (Homo sapiens; N65S/Q36K) (protein)
chain: T1 sequence (P00374 1-187 Q36S/N65F) with S36K, F65S
For B1, the Km ([1]; other: hDHFR Q35K/N64S, 37.0 °C) was 0.7 ± 0.2 (n=6) μM.

B2: hDHFR Q35S/N64F (Homo sapiens; N65F/Q36S) (protein)
chain: T1 sequence (P00374 1-187 Q36S/N65F)
B2 was tested, and the Km ([1]; other: hDHFR Q35S/N64F, 37.0 °C) was 0.7 ± 0.2 (n=5) μM.

B3: pjDHFR (Pneumocystis jirovecii) (protein)
chain: T8 sequence (Q9UUP5 1-206)
For B3, the Km ([1]; other: pjDHFR, cofactor at saturating concentration) was 2.2 ± 0.2^1 (n=13) μM.

B4: hDHFR (Homo sapiens) (protein)
chain: T1 sequence (P00374 1-187 Q36S/N65F) with S36Q, F65N
For B4, the Km ([1]; other: wild type hDHFR, 37.0 °C) was 0.7 ± 0.1 (n=8) μM.

B5: hDHFR Q35S (Homo sapiens; Q36S) (protein)
chain: T1 sequence (P00374 1-187 Q36S/N65F) with F65N
With B5 the Km ([1]; other: hDHFR Q35S, 37.0 °C) was 0.7 ± 0.2 (n=4) μM.

B6: hDHFR N64S (Homo sapiens; N65S) (protein)
chain: T1 sequence (P00374 1-187 Q36S/N65F) with S36Q, F65S
With B6 the Km ([1]; other: hDHFR N64S, 37.0 °C) was 0.9 ± 0.3 (n=3) μM.
